How the values were obtained:
human glucagon receptor [1] = target: T1, human glucagon receptor (Homo sapiens (Human), UniProt P47871); experiment: Human Glucagon SPA Assay (binding of [125I]Glucagon-Cex); conditions: membrane from chem-1 cells stably transfected with the human glucagon receptor, Ki by Cheng-Prusoff equation
human glucagon receptor [2] = target: T1, human glucagon receptor; experiment: Glucagon cAMP Assay (Cisbio cAMP detection); type: cell-based; conditions: CHOK1 cells stably transfected with the human glucagon receptor; block of glucagon induced cAMP production; Kb by modified Cheng-Prusoff equation

T1 sequence (P47871 26-477): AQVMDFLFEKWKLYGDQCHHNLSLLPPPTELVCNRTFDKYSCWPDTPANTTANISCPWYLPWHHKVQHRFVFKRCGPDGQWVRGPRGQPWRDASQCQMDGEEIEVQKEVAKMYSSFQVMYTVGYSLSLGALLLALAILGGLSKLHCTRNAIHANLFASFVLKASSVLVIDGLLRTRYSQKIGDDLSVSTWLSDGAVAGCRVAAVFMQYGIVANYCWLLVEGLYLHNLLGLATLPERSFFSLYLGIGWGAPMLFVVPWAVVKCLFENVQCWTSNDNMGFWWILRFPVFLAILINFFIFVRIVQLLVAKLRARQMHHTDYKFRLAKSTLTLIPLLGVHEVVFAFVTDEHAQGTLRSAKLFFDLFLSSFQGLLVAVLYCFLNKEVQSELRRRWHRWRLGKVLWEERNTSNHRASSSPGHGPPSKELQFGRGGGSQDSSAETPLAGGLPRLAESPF

With `CC1(C)CC([C@H](Nc2ccc(-n3cc(C4CC4)cn3)nc2)c2ccc(C(=O)NCCC(=O)O)cc2)C1` (single isomer, unassigned; isomer 1) [Example 174, N-{-4-[{[6-(4-cyclopropyl-1H-pyrazol-1-yl)pyridin-3-yl]amino}(3,3-dimethylcyclobutyl)methyl]benzoyl}-beta-alanine, Isomer 1] the Ki (human glucagon receptor [1]) was 57 nM and the Kb (human glucagon receptor [2]) was 252 nM.
Work on `O=C(O)CCNC(=O)c1ccc(C(Nc2cnc(-n3cnc(C(F)(F)F)c3)nc2)C2CCCC2)cc1` (stereo not shown) [Example 193, 3-(4-(cyclopentyl(2-(4-(trifluoromethyl)-1H-imidazol-1-yl)pyrimidin-5-ylamino)methyl)benzamido)propanoic acid] yielded a Ki (human glucagon receptor [1]) of 44.7 nM and a Kb (human glucagon receptor [2]) of 84.1 nM.
With `CCCC(Nc1ccc(-n2cc(CC)c(C)n2)nc1)c1ccc(C(=O)NCCC(=O)O)cc1` (single isomer, unassigned; isomer 2) [Example 167, 3-(4-(1-(6-(4-ethyl-3-methyl-1H-pyrazol-1-yl)pyridin-3-ylamino)butyl)benzamido)propanoic acid, Isomer 2] the Ki (human glucagon receptor [1]) was 414 nM and the Kb (human glucagon receptor [2]) was 1140 nM.
`CCCC(Nc1ccc(-n2cc(-c3ccccc3)cn2)nc1)c1ccc(C(=O)NCCC(=O)O)cc1` (single isomer, unassigned; isomer 2) [Example 161, 3-(4-(1-(6-(4-phenyl-1H-pyrazol-1-yl)pyridine-3-ylamino)butyl)benzamido)propanoic acid, Isomer 2] showed a Ki (human glucagon receptor [1]) of 25.7 nM and a Kb (human glucagon receptor [2]) of 9.49 nM.
With `CC1(C)CC(C(Nc2cnc(-n3cc(C(F)(F)F)cn3)nc2)c2ccc(C(=O)NCCC(=O)O)cc2)C1` (single isomer, unassigned; isomer 1) [Example 157, 3-(4-((3,3-dimethylcyclobutyl)(2-(4-(trifluoromethyl)-1H-pyrazol-1-yl)pyrimidin-5-ylamino)methyl)benzamido)propanoic acid, Isomer 1] the Ki (human glucagon receptor [1]) was 5.55 nM and the Kb (human glucagon receptor [2]) was 18.6 nM.
For `Cc1cc(OC(c2ccc(C(=O)NCCC(=O)O)cc2)C2CCCC2)cc(C)c1-n1cnc(C(F)(F)F)c1` (stereo not shown) [Example 131, (+\−)-3-(4-(cyclopentyl(3,5-dimethyl-4-(4-(trifluoromethyl)-1H-imidazol-1-yl)phenoxy)methyl)benzamido)propanoic acid], the Ki (human glucagon receptor [1]) was 51 nM and the Kb (human glucagon receptor [2]) was 247 nM.
Compound `CCCC(Oc1cc(C)c(-n2cc(Cl)cn2)c(C)c1)c1ccc(C(=O)NCCC(=O)O)cc1` (stereo not shown) [Example 130, (+\−)-3-(4-(1-(4-(4-chloro-1H-pyrazol-1-yl)-3,5-dimethylphenoxy)butyl)benzamido)propanoic acid] has a Ki (human glucagon receptor [1]) of 116 nM and a Kb (human glucagon receptor [2]) of 195 nM.
`CC1(C)CC(C(Nc2ccc(-n3cc(C(F)(F)F)cn3)nc2)c2ccc(C(=O)NCCC(=O)O)cc2)C1` (single isomer, unassigned) [Example 114, 3-(4-((3,3-dimethylcyclobutyl)(6-(4-(trifluoromethyl)-1H-pyrazol-1-yl)pyridin-3-ylamino)methyl)benzamido)propanoic acid] gave a Ki (human glucagon receptor [1]) of 7.6 nM and a Kb (human glucagon receptor [2]) of 17 nM.
`CCCC(Oc1cc(C)c(-n2cc(Cl)cn2)c(C)c1)c1ccc(C(=O)NCCC(=O)O)cc1` (single isomer, unassigned) [Example 145, 3-(4-(1-(4-(4-chloro-1H-pyrazol-1-yl)-3,5-dimethylphenoxy)butyl)benzamido)propanoic acid] gave a Ki (human glucagon receptor [1]) of 93.2 nM and a Kb (human glucagon receptor [2]) of 156 nM.
In the case of `O=C(O)CCNC(=O)c1ccc(C(Nc2ccc(-n3cnc(C(F)(F)F)c3)nc2)C2CC(F)(F)C2)cc1` (racemic) [Example 154, (+/−)-3-(4-((3,3-difluorocyclobutyl)(6-(4-(trifluoromethyl)-1H-imidazol-1-yl)pyridin-3-ylamino)methyl)benzamido)propanoic acid], the Ki (human glucagon receptor [1]) is reported as 235 nM and the Kb (human glucagon receptor [2]) is reported as 629 nM.
Compound `CCCC(Oc1cc(C)c(-n2cnc(C(F)(F)F)c2)c(C)c1)c1ccc(C(=O)NCCC(=O)O)cc1` (stereo not shown) [Example 141, (+\−)-3-(4-(1-(3,5-dimethyl-4-(4-(trifluoromethyl)-1H-imidazol-1-yl)phenoxy)butyl)benzamido)propanoic acid] has a Ki (human glucagon receptor [1]) of 89.5 nM and a Kb (human glucagon receptor [2]) of 586 nM.
`CCCC(Oc1ccc(-n2cc3cc(F)ccc3n2)cc1)c1ccc(C(=O)NCCC(=O)O)cc1` (racemic) [Example 185, (+/−)-3-(4-{1-[4-(5-fluoro-indazol-2-yl)-phenoxy]-butyl}-benzoylamino)-propionic acid] gave a Ki (human glucagon receptor [1]) of 137 nM and a Kb (human glucagon receptor [2]) of 175 nM.
`CC(C)(C)C(Nc1ccc(-n2cc(C(F)(F)F)cn2)nc1)c1ccc(C(=O)NCCC(=O)O)cc1` (racemic) [Example 178, (±)-3-(4-(2,2-dimethyl-1-((6-(4-(trifluoromethyl)-1H-pyrazol-1-yl)pyridin-3-yl)amino)propyl)benzamido)propanoic acid] was tested, and the Ki (human glucagon receptor [1]) was 37.4 nM and the Kb (human glucagon receptor [2]) was 215 nM.
`CC(C)(C)[C@H](Nc1ccc(-n2cc(C(F)(F)F)cn2)nc1)c1ccc(C(=O)NCCC(=O)O)cc1` (single isomer, unassigned; isomer 1) [Example 179, 3-(4-(2,2-dimethyl-1-((6-(4-(trifluoromethyl)-1H-pyrazol-1-yl)pyridin-3-yl)amino)propyl)benzamido)propanoic acid, Isomer 1] showed a Ki (human glucagon receptor [1]) of 22.1 nM and a Kb (human glucagon receptor [2]) of 134 nM.
Work on `Cc1cc(OC(c2ccc(C(=O)NCCC(=O)O)cc2)C2CC(C)(C)C2)cc(C)c1-n1cc(C(F)(F)F)cn1` (racemic) [Example 152, (+/−)-3-(4-((3,5-dimethyl-4-(4-(trifluoromethyl)-1H-pyrazol-1-yl)phenoxy)(3,3-dimethylcyclobutyl)methyl)benzamido)propanoic acid] yielded a Ki (human glucagon receptor [1]) of 35.2 nM and a Kb (human glucagon receptor [2]) of 301 nM.
`CCCC(Nc1ccc(-n2cc(-c3ccccc3)cn2)nc1)c1ccc(C(=O)NCCC(=O)O)cc1` (single isomer, unassigned; isomer 1) [Example 160, 3-(4-(1-(6-(4-phenyl-1H-pyrazol-1-yl)pyridine-3-ylamino)butyl)benzamido)propanoic acid, Isomer 1] gave a Ki (human glucagon receptor [1]) of 29 nM and a Kb (human glucagon receptor [2]) of 111 nM.
`CC1(C)CC(C(Nc2ccc(-n3cc(C(F)(F)F)cn3)nc2)c2ccc(C(=O)NCCC(=O)O)cc2)C1` (single isomer, unassigned) [Example 115, 3-(4-((3,3-dimethylcyclobutyl)(6-(4-(trifluoromethyl)-1H-pyrazol-1-yl)pyridin-3-ylamino)methyl)benzamido)propanoic acid] was tested, and the Ki (human glucagon receptor [1]) was 15.8 nM and the Kb (human glucagon receptor [2]) was 231 nM.
`CCC[C@H](Oc1cc(C)c(-n2cc3ccccc3n2)c(C)c1)c1ccc(C(=O)NCCC(=O)O)cc1` [Example 187, (S)-3-(4-(1-(4-(2H-indazol-2-yl)-3,5-dimethylphenoxy)butyl)benzamido)propanoic acid] showed a Ki (human glucagon receptor [1]) of 47.8 nM and a Kb (human glucagon receptor [2]) of 167 nM.
For `CC1(C)CC([C@@H](Nc2ccc(-n3cnc(C(F)(F)F)c3)nc2)c2ccc(C(=O)NCCC(=O)O)cc2)C1` (single isomer, unassigned) [Example 135, 3-(4-((3,3-dimethylcyclobutyl)(6-(4-(trifluoromethyl)-1H-imidazol-1-yl)pyridin-3-ylamino)methyl)benzamido)propanoic acid], the Ki (human glucagon receptor [1]) was 35 nM and the Kb (human glucagon receptor [2]) was 28 nM.
Work on `CCCC(Nc1ccc(-n2cc(-c3ccccc3)cn2)nc1)c1ccc(C(=O)NCCC(=O)O)cn1` (stereo not shown) [Example 132, (+\−)-3-(6-(1-(6-(4-phenyl-1H-pyrazol-1-yl)pyridin-3-ylamino)butyl)nicotinamido)propanoic acid] yielded a Ki (human glucagon receptor [1]) of 132 nM and a Kb (human glucagon receptor [2]) of 153 nM.
`CCC[C@@H](Nc1ccc(-n2cc(C(C)(C)C)cn2)nc1)c1ccc(C(=O)NCCC(=O)O)cc1` (single isomer, unassigned) [Example 136, 3-(4-(1-(6-(4-tert-butyl-1H-pyrazol-1-yl)pyridin-3-ylamino)butyl)benzamido)propanoic acid] gave a Ki (human glucagon receptor [1]) of 30.2 nM and a Kb (human glucagon receptor [2]) of 222 nM.
Compound `CCCC(Oc1ccc(-c2cc(C(F)(F)F)nn2C)cc1)c1ccc(C(=O)NCCC(=O)O)cc1` (racemic) [Example 53, (+/−)-3-(4-(1-(4-(1-methyl-3-(trifluoromethyl)-1H-pyrazol-5-yl)phenoxy)butyl)benzamido)propanoic acid] has a Ki (human glucagon receptor [1]) of 556 nM and a Kb (human glucagon receptor [2]) of 2610 nM.
`CCCC(Oc1cc(C)c(-n2cc3ccccc3n2)c(C)c1)c1ccc(C(=O)NCCC(=O)O)cc1` (stereo not shown) [Example 189, (+\−)-3-(4-(1-(4-(2H-indazol-2-yl)-3,5-dimethylphenoxy)butyl)benzamido)propanoic acid] showed a Ki (human glucagon receptor [1]) of 109 nM and a Kb (human glucagon receptor [2]) of 370 nM.
In the case of `CCCC(Oc1cnc(-n2cc(C(F)(F)F)cn2)c(C)c1)c1ccc(C(=O)NCCC(=O)O)cc1` (racemic) [Example 150, (+/−)-3-(4-(1-(5-methyl-6-(4-(trifluoromethyl)-1H-pyrazol-1-yl)pyridin-3-yloxy)butyl)benzamido)propanoic acid], the Ki (human glucagon receptor [1]) is reported as 446 nM and the Kb (human glucagon receptor [2]) is reported as 1640 nM.
Compound `O=C(O)CCNC(=O)c1ccc(C(Nc2ccc(-n3cnc(C(F)(F)F)c3)nc2)C2CCCC2)cc1` (single isomer, unassigned) [Example 97, 3-(4-(cyclopentyl(6-(4-(trifluoromethyl)-1H-imidazol-1-yl)pyridin-3-ylamino)methyl)benzamido)propanoic acid] has a Ki (human glucagon receptor [1]) of 93 nM and a Kb (human glucagon receptor [2]) of 90.8 nM.
`CCCC(Oc1cc(C)c(-n2cc(C(F)(F)F)cn2)c(OC)c1)c1ccc(C(=O)NCCC(=O)O)cc1` (racemic) [Example 153, (+/−)-3-(4-(1-(3-methoxy-5-methyl-4-(4-(trifluoromethyl)-1H-pyrazol-1-yl)phenoxy)butyl)benzamido)propanoic acid] was tested, and the Ki (human glucagon receptor [1]) was 32.3 nM and the Kb (human glucagon receptor [2]) was 225 nM.
